In PubChem BioAssay AID1259321 (Sanford-Burnham Center for Chemical Genomics, 2017):
Active and inactive are the calls of the source.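 How the source made its calls: active means half-maximal concentration for changing protein binding to DNA, from the fitted dose curve, below 10 micromolar; inactive means the rest.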

Target: Nuclear receptor subfamily 1 group D member 1 (Homo sapiens) (UniProt P20393)
Experiment: Rev-erbα–DNA interaction modulators – biochemical, FITC-DNA, fluorescence polarization, dose response (AID 1259321)
Details: Rev-erb alpha-FITC-DNA binding

Nuclear receptor subfamily 1 group D member 1 (Homo sapiens), sequence (P20393 whole entry, looked up): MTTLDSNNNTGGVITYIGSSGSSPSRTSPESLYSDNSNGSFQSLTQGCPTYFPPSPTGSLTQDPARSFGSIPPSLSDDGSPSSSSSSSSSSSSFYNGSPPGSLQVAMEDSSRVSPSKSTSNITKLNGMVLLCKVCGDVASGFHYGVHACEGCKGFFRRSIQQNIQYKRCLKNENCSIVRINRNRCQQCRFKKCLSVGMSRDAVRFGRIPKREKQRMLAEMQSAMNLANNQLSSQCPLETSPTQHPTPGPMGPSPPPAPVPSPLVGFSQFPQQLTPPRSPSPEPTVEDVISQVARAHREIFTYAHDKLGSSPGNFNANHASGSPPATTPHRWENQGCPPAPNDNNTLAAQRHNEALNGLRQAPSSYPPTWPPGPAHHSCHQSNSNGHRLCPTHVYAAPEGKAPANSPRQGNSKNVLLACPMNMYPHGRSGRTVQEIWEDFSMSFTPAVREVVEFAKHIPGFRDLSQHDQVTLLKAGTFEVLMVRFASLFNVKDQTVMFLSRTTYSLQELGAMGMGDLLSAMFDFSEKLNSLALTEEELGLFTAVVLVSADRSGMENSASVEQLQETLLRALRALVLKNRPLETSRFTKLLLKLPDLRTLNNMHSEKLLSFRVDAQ

| Structure (SMILES) | IC50 |
| --- | --- |
| O=C(CCS(=O)(=O)c1ccccc1)Nc1ccccc1-c1nc2ccccc2s1 | 0.518 µM |
| Cn1c(SCC(=O)Nc2cccc(F)c2)nnc1-c1cc2ccccc2o1 | inactive |
| N#Cc1c(N)nc(SCC(=O)C23CC4CC(CC(C4)C2)C3)c(C#N)c1-c1ccc(Cl)cc1 | > 40 µM (inactive) |
| CC(C)n1cc(/C=C/c2cc[n+](C)cc2)c2ccccc21 | inactive |
| COc1ccc(Cl)cc1NC(=O)c1[nH]c(C)c(C(C)=O)c1C | 6.1 µM |
| CCOC(=O)CC(=O)CSc1nc(-c2ccc3c(c2)OCO3)cc(C(F)(F)F)c1C#N | inactive |
| CNc1ccc2c3c(cccc13)C(=O)N(C)C2=O | 4.6 µM |
| COc1ccc(C(C)(C)C)cc1NC(=O)C1=CC=CN2CCS(=O)(=O)N=C12 | 5.35 µM |
| Cc1cc(C)c(NC(=O)COc2ccccc2C(=O)Nc2ccc3c(c2)oc2ccccc23)c(C)c1 | > 40 µM (inactive) |
| CCC(C)OC(=O)c1cc(C)nc2c(Br)cc(Br)cc12 (configuration not stated) | 7.65 µM |
| CN1C(=O)C(=Cc2ccc(N3CCOCC3)o2)C(=O)N(C)C1=S | 4.11 µM |
| COc1ccccc1N1N=C(C(=O)c2ccccc2)C2C(=O)N(c3ccc(Br)cc3)C(=O)C21 (configuration not stated) | 8.96 µM |
| Cc1ccc2c3c(c(SCC(=O)Nc4nonc4C)nc2c1)CCCC3 | > 40 µM (inactive) |
| O=C(COC(=O)c1sc2cc(F)ccc2c1Cl)Nc1ncc(Cl)cc1Cl | > 40 µM (inactive) |
| O=C(Cc1sc(-c2ccccc2)nc1-c1ccccc1)Nc1ccc(Cl)cc1 | 3.2 µM |
| CCOC(=O)c1cc(C(=O)OCC)c2cc(Br)ccc2n1 | inactive |
| Cc1ccc(CNc2nc3ccccc3n3nnnc23)cc1 | inactive |
| Clc1ccccc1-c1nn2c(-c3cc(-c4ccccc4)n[nH]3)nnc2s1 | > 40 µM (inactive) |
| Cc1cc(OC(C)C(=O)NCc2cccnc2)c2c(C)c(Cc3ccccc3)c(=O)oc2c1 (configuration not stated) | inactive |
| CC(=O)Oc1ccc(/C=N\NC(=O)c2cc3c(ccc4ccccc43)o2)cc1 | inactive |
| COc1ccc(C(C)=O)cc1CSc1nc2ccccc2c(=O)n1-c1ccccc1 | > 40 µM (inactive) |
| Cc1cc(C)n2nc(-c3ccc(Cl)cc3)cc2n1 | 1.64 µM |
| Clc1nc2c(-c3ccccc3)nnn2c2ccccc12 | > 40 µM (inactive) |
| Cc1ccc2nc(/C(C#N)=C/c3ccc(-c4ccccc4C(=O)O)o3)[nH]c2c1 | inactive |
| COc1ccccc1NC(=O)c1cnc(SCC(=O)NCCc2ccccc2)n(C)c1=O | 4.36 µM |
| CN(C)c1ccc(N=Nc2ccccc2C(=O)OCC(=O)N2CCCC2)cc1 | 0.527 µM |

| Structure (SMILES) | IC50 |
| --- | --- |
| COc1cccc(C(=O)n2ccc3ccc(-c4ccc5ccn(C(=O)c6cccc(OC)c6)c5c4)cc32)c1 | 3.26 µM |
| Cc1cccc2cc(C#N)c(NCCNC(=O)NC3CCCCC3)nc12 | inactive |
| COc1ccc(-c2c(C)nc3c(-c4ccsc4)cnn3c2N)cc1 | 9.42 µM |
| CCCCn1c(SC(C)C(=O)NCC2CCCO2)nc2cc(C(=O)OC)ccc2c1=O (configuration not stated) | > 40 µM (inactive) |
| Cc1cc(NC(=O)CSc2nc3c(C)ccc(C)c3cc2C#N)no1 | 3.19 µM |
| COc1ccc(NC(=O)c2sc3cc(C(F)(F)F)cnc3c2-c2cccs2)cc1 | > 40 µM (inactive) |
| Cc1ccc(-c2nc3ccccc3s2)cc1NC(=O)c1cc(-n2cnnc2)ccc1Cl | inactive |
| O=C(NCc1cc(C(F)(F)F)ccc1Cl)c1cccc2c1C(=O)c1ccc(Cl)cc1S2(=O)=O | 4.22 µM |
| Oc1c(C=Nc2cccc3cccnc23)sc2ccccc12 | 8.64 µM |
| Oc1ccc2ccc3cccc[n+]3c2c1 | > 40 µM (inactive) |
| CCOC(=O)c1ccccc1NC(=O)c1cncc(Br)c1 | 7.27 µM |
| COCCN(Cc1cc2cc(C)ccc2n2nnnc12)C(=S)Nc1ccccc1C | 2.73 µM |
| O=C(O)CSc1c2ccccc2cc2ccccc12 | > 40 µM (inactive) |
| O=C(Nc1ccnc(-c2cccnc2)n1)c1ccc(Cl)cc1 | 5.12 µM |
| COc1ccc(C2=NN(C(=O)CSc3ncccn3)C(c3cccc(OC)c3OC)C2)cc1 (configuration not stated) | 1.5 µM |
| COc1cc(C(=O)Nc2nnc(-c3sccc3C)s2)cc(OC)c1OC | 4.24 µM |
| O=c1ccc(-c2ccc(S(=O)(=O)N3CCN(c4ccccc4)CC3)o2)n[nH]1 | > 40 µM (inactive) |
| N#Cc1c(N)nc(N2CCCC2)c(C#N)c1-c1ccc(Cl)cc1 | 4.99 µM |
| Cc1cc(NC(=O)CSc2nc3c(C)cccc3cc2C#N)no1 | > 40 µM (inactive) |
| COc1ccc(C(=O)Nc2nc(C)c(C(C)=O)s2)cc1S(=O)(=O)N1CCOCC1 | > 40 µM (inactive) |
| C[n+]1ccc(/C=C/c2c[nH]c3ccccc23)cc1 | inactive |
| Cc1ccc(-n2c(O)c(/C=N/c3ncc(Br)cc3Br)c(=O)[nH]c2=O)cc1 | inactive |
| O=C(Nc1ccc2c(c1)C(=O)NC2=O)c1ccc2ncsc2c1 | 2.29 µM |
| Clc1ccc(-c2ccnc(Oc3cc(Cl)ccc3Cl)n2)cc1 | > 40 µM (inactive) |
| N#Cc1ccc(Oc2ccc(-c3nc4ccccc4nc3-c3ccccc3)cc2)cc1C#N | 4.49 µM |
| Cc1nc(SCC(=O)NCCc2ccccc2)c2oc3ccccc3c2n1 | 4.25 µM |
